The source of these data is patent publication US8921376B2, “Pyrrolopyridines useful as inhibitors of protein kinase” (Vertex Pharmaceuticals Incorporated, priority 2005, dated 2014).

Assay type in all cases: biochemical
In one assay the target is JAK2 (Homo sapiens, UniProt O60674). Description: JAK2 inhibition assay (as Example 3 with JAK-2 enzyme). The method in brief:
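Radiometric JAK2 kinase assay: poly(Glu)4Tyr substrate at final 15 μM, ATP at final 12 μM with [33P]; buffer 100 mM HEPES pH 7.4, 1 mM DTT, 10 mM MgCl2, 25 mM NaCl, 0.01% BSA. 20 min at 25 °C, TCA-stopped, 33P incorporation counted after filter capture.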

In the next assay the target is ROCK I (Homo sapiens, UniProt Q13464). Kind of assay: ROCK-I inhibition assay (radioactive enzyme assay, MBP substrate). Summed up: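 Human ROCK at 5 nM phosphorylated 27 μM myelin basic protein with 13 μM [γ-33P]ATP (final) in HEPES pH 7.5, MgCl2, NaCl, DTT and 1.5% DMSO. Reactions ran 2 h at room temperature before TCA quench and filter-plate scintillation counting. After background subtraction, data were fit to give Ki(app).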
ROCK I, sequence (Q13464 whole entry): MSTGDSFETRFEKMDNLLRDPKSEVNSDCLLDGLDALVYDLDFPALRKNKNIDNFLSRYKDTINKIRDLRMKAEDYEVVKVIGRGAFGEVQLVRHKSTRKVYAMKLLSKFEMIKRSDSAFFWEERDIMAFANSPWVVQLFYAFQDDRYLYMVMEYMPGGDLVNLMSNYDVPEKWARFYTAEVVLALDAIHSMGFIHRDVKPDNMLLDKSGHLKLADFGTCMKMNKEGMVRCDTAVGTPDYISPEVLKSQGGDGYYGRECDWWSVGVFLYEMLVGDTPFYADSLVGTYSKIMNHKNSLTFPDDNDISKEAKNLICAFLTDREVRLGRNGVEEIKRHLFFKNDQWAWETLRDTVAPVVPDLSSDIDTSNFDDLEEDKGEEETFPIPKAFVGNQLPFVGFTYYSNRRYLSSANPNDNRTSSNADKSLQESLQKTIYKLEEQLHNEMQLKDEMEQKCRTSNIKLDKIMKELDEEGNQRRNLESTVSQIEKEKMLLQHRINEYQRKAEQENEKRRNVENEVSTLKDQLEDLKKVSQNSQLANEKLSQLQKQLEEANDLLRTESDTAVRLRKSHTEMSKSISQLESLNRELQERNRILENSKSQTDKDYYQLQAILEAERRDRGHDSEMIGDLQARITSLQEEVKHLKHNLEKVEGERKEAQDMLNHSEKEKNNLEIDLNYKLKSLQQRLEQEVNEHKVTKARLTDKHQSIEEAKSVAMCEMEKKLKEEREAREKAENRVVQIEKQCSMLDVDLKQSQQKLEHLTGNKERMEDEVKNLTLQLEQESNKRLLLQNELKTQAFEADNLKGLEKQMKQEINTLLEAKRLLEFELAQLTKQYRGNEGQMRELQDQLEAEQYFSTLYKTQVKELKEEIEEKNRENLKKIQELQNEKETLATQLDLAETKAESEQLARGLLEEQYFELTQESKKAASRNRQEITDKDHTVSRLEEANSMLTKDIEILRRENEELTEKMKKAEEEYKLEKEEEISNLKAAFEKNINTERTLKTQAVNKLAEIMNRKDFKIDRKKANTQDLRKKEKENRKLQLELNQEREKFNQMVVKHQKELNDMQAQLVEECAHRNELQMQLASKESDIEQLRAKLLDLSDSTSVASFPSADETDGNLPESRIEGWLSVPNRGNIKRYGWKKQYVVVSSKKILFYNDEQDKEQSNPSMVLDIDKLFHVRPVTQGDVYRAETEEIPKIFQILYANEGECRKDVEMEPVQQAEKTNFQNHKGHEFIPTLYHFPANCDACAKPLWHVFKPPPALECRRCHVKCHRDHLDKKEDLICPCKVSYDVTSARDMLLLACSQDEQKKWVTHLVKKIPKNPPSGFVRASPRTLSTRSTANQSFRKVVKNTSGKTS

Another assay deals with T1, JAK3 (Homo sapiens, UniProt P52333).
T1 sequence (P52333 1-1124): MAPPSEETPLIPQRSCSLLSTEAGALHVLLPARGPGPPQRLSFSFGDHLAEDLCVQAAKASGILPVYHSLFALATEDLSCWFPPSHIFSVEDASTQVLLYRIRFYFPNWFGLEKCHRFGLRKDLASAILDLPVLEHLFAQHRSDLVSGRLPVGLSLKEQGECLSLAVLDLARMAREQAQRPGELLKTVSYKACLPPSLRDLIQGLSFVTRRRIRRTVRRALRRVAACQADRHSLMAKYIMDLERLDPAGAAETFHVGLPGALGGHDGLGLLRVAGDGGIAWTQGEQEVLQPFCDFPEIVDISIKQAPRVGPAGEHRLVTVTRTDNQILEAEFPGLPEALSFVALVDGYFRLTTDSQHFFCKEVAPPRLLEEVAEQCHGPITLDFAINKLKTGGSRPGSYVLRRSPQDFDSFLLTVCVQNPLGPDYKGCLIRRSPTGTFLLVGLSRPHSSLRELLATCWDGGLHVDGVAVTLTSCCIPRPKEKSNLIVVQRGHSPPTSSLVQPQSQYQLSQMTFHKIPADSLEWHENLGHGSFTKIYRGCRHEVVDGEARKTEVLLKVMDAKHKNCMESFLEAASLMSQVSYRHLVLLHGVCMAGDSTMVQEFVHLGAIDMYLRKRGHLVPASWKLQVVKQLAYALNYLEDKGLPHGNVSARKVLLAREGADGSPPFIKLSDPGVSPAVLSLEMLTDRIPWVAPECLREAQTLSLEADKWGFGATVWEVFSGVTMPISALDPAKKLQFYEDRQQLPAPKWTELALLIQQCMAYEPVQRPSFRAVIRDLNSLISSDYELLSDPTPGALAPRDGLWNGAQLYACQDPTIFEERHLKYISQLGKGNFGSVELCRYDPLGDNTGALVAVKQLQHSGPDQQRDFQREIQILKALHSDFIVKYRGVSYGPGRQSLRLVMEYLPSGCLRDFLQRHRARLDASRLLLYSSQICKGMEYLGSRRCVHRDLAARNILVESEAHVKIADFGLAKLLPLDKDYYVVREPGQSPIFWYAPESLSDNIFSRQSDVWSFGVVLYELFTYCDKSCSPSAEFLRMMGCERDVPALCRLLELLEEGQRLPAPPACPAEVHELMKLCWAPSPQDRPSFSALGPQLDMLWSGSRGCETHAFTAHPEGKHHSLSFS
Description: JAK3 inhibition assay (33P incorporation into poly(Glu)4Tyr). Summed up: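 Human JAK3 at 1 nM phosphorylated 1 μM poly(Glu)4Tyr using 5 μM [33P]ATP in HEPES pH 7.4 buffer with MgCl2, DTT and BSA. Reactions ran 20 min at 25° C. and were stopped with TCA. 33P incorporation was measured by scintillation after glass-fiber filter capture.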

[1] abbreviates: Table 6, enzyme inhibition data (Ki).
[2] abbreviates: enzyme inhibition, Ki(app), Table 5.

Structures are written as SMILES. A value given as a limit tells only on which side of the number the result lay.

JAK2, sequence (O60674 whole entry): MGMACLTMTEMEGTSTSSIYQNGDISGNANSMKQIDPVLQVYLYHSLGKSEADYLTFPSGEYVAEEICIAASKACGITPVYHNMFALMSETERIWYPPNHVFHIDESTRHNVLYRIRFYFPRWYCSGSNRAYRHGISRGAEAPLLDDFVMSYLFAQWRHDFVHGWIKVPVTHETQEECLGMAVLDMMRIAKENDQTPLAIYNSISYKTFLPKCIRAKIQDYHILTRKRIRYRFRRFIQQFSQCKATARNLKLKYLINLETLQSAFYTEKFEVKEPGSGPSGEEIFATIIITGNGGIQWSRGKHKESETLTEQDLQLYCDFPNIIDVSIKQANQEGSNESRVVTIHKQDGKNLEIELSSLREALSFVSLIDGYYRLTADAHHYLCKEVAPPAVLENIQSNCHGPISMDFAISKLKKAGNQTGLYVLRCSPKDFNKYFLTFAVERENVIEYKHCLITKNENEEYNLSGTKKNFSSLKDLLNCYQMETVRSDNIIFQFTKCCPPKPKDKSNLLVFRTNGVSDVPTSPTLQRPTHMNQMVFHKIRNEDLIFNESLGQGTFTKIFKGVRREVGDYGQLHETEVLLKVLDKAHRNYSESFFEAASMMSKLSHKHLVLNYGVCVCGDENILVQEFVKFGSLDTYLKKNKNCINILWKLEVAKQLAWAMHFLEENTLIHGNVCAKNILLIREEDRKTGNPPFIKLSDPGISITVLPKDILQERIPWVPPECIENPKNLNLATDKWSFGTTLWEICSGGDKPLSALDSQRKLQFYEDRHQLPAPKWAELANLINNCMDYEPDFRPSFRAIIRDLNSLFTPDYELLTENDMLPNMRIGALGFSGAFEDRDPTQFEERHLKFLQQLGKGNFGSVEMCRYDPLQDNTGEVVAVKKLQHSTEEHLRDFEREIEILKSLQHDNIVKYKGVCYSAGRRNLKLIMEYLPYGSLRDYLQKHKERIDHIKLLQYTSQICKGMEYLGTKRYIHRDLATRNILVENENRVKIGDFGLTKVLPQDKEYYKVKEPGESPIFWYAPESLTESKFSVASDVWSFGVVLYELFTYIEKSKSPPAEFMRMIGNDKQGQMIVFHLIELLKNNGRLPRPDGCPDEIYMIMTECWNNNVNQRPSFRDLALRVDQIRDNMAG

Consider `CC(C)CN(C)C(=O)c1cc(-c2c(Cl)cnc3[nH]ccc23)c[nH]1` [compound 341], for which the Ki on JAK2 (setting [1]) is < 0.5 µM; at ROCK I (setting [1]), 0.5 to 5 µM; on JAK3 (setting [1]) it was < 0.5 µM.
With `FC(F)(F)Oc1ccccc1-c1ccnc2[nH]ccc12` [compound 206], the Ki on JAK2 (setting [1]) is 0.5 to 5 µM; on ROCK I (setting [1]), > 4 µM; at JAK3 (setting [1]), 0.5 to 5 µM.
For `CS(=O)(=O)N1CCCC(Nc2c(Cl)cnc3[nH]ccc23)C1` (stereo not drawn) [compound 182], the Ki was < 0.5 µM at JAK2 (setting [1]), 0.5 to 5 µM at ROCK I (setting [1]) and < 0.5 µM on JAK3 (setting [1]).
Consider `COc1cccc(-c2ccnc3[nH]ccc23)c1OC` [compound 233], for which the results for the Ki at JAK2 (setting [1]), at ROCK I (setting [1]) and at JAK3 (setting [1]) were > 5 µM, 0.5 to 5 µM and 0.5 to 5 µM, respectively.
As to `CCCN(CCC#N)C(=O)c1cc(-c2ccnc3[nH]ccc23)c[nH]1` [compound 302], the Ki on JAK2 (setting [1]), on ROCK I (setting [1]) and on JAK3 (setting [1]) was < 0.5 µM throughout.
As to `C=CCN(C(=O)c1csc(-c2ccnc3[nH]ccc23)n1)C1CCCC1` [compound 410], the Ki on JAK2 (setting [1]), at ROCK I (setting [1]) and on JAK3 (setting [1]) was < 0.5 µM throughout.
For the compound `O=C(NC1CCC1)c1cc(-c2ccnc3[nH]ccc23)c[nH]1` [compound 287], the Ki at JAK2 (setting [1]), on ROCK I (setting [1]) and at JAK3 (setting [1]) was < 0.5 µM each time.
As for `C#CCN(C)C(=O)c1ccc(-c2ccnc3[nH]ccc23)s1` [compound 323], the Ki at JAK2 (setting [1]), on ROCK I (setting [1]) and on JAK3 (setting [1]) was < 0.5 µM throughout.
As for `C[C@@H](Nc1nc(-c2ccnc3[nH]ccc23)ncc1F)C(=O)NCC(F)(F)F` [compound 201], the Ki at JAK2 (setting [1]) was 0.5 to 5 µM; at ROCK I (setting [1]), > 4 µM; at JAK3 (setting [1]) it was < 0.5 µM.
The corresponding values for `NC(=O)C1CCCN1C(=O)c1cc(-c2ccnc3[nH]ccc23)c[nH]1` (stereo not drawn) [compound 368] are 0.5 to 5 µM, 0.5 to 5 µM and < 0.5 µM.
For the compound `Oc1cccc(-c2ccnc3[nH]ccc23)c1` [compound 105, 3-(1H-Pyrrolo[2,3-b]pyridin-4-yl)-phenol], the Ki on JAK2 (enzyme inhibition, Table 5) was < 0.5 µM; at ROCK I (setting [2]), < 0.5 µM; at JAK3 (enzyme inhibition, Table 5), < 0.5 µM.
Regarding `CCCNC(=O)c1cccc(-c2ccnc3[nH]ccc23)c1` [compound 256], the results for the Ki at JAK2 (setting [1]), at ROCK I (setting [1]) and at JAK3 (setting [1]) were > 5 µM, 0.5 to 5 µM and 0.5 to 5 µM, respectively.
Take `c1cc(-c2ccnc3[nH]ccc23)nc(N2CCC[C@H]2CN2CCCC2)c1` [compound 54]: the Ki at JAK2 (enzyme inhibition, Table 5) is > 5 µM; on ROCK I (setting [2]), 0.5 to 5 µM; on JAK3 (enzyme inhibition, Table 5), > 5 µM.
As for `Fc1ccccc1-c1ccnc2[nH]ccc12` [compound 236], the figures for the Ki on JAK2 (setting [1]), on ROCK I (setting [1]) and at JAK3 (setting [1]) were 0.5 to 5 µM, < 0.5 µM and < 0.5 µM, respectively.
Turning to `CCOC(=O)C1CCN(C(=O)c2cc(-c3c(Cl)cnc4[nH]ccc34)c[nH]2)CC1` [compound 348], the Ki is 0.5 to 5 µM at JAK2 (setting [1]), > 4 µM on ROCK I (setting [1]) and 0.5 to 5 µM at JAK3 (setting [1]).
As for `CC(C)(CO)CNc1cccc(-c2ccnc3[nH]ccc23)n1` [compound 57, 3-(6-(1H-Pyrrolo[2,3-b]pyridin-4-yl)pyridin-2-ylamino)-2,2-dimethylpropan-1-ol], the Ki is 0.5 to 5 µM on JAK2 (enzyme inhibition, Table 5); 0.5 to 5 µM on ROCK I (setting [2]); > 5 µM at JAK3 (enzyme inhibition, Table 5).
Turning to `N#CCCN(CCC(F)(F)F)C(=O)c1csc(-c2ccnc3[nH]ccc23)n1` [compound 405, 2-(1H-Pyrrolo[2,3-b]pyridin-4-yl)-thiazole-4-carboxylic acid (2-cyano-ethyl)-(3,3,3-trifluoro-propyl)-amide], the Ki at JAK2 (setting [1]), at ROCK I (setting [1]) and on JAK3 (setting [1]) was < 0.5 µM each time.
As to `Cc1ccc(F)c(-c2ccnc3[nH]ccc23)c1Cl` [compound 244], the values for the Ki at JAK2 (setting [1]), at ROCK I (setting [1]) and on JAK3 (setting [1]) were > 5 µM, 0.5 to 5 µM and 0.5 to 5 µM, respectively.
`CCNC(=O)c1ccc(-c2ccnc3[nH]ccc23)cc1` [compound 273]: the results for the Ki on JAK2 (setting [1]), on ROCK I (setting [1]) and at JAK3 (setting [1]) were < 0.5 µM, 0.5 to 5 µM and 0.5 to 5 µM, respectively.
As for `CN(C)C1CCN(C(=O)c2cc(-c3c(Cl)cnc4[nH]ccc34)c[nH]2)C1` (stereo not drawn) [compound 355], the Ki on JAK2 (setting [1]) is < 0.5 µM; on ROCK I (setting [1]), > 4 µM; at JAK3 (setting [1]), 0.5 to 5 µM.
Consider `c1ccc(COc2cccc(-c3ccnc4[nH]ccc34)c2)cc1` [compound 42, 4-(3-Benzyloxy-phenyl)-1H-pyrrolo[2,3-b]pyridine], for which the Ki on JAK2 (enzyme inhibition, Table 5) is 0.5 to 5 µM; at ROCK I (setting [2]), < 0.5 µM; at JAK3 (enzyme inhibition, Table 5), < 0.5 µM.
In the case of `N#CCC(=O)N1CC=C(c2ccnc3[nH]ccc23)CC1` [compound 66], the Ki was < 0.5 µM at JAK2 (enzyme inhibition, Table 5); < 0.5 µM at ROCK I (setting [2]); 0.5 to 5 µM at JAK3 (enzyme inhibition, Table 5).
Turning to `Fc1cccc(-c2ccnc3[nH]ccc23)n1` [compound 50, 4-(6-fluoropyridin-2-yl)-1H-pyrrolo[2,3-b]pyridine], the Ki lay in the range of 0.5 to 5 µM on JAK2 (enzyme inhibition, Table 5); 0.5 to 5 µM at ROCK I (setting [2]); 0.5 to 5 µM on JAK3 (enzyme inhibition, Table 5).
For `CCOc1ccccc1-c1ccnc2[nH]ccc12` [compound 223], the Ki on JAK2 (setting [1]), at ROCK I (setting [1]) and at JAK3 (setting [1]) was 0.5 to 5 µM throughout.
With `Clc1cnc2[nH]ccc2c1-c1cn[nH]c1` [compound 80, 5-Chloro-4-(1H-pyrazol-4-yl)-1H-pyrrolo[2,3b]pyridine], the Ki at JAK2 (enzyme inhibition, Table 5) is < 0.5 µM; on ROCK I (setting [2]), 0.5 to 5 µM; at JAK3 (enzyme inhibition, Table 5), < 0.5 µM.
For the compound `O=C(O)c1cc(-c2c(Cl)cnc3[nH]ccc23)c[nH]1` [compound 81, 4-(5-Chloro-1H-pyrrolo[2,3b]pyridin-4-yl)-1H-pyrrole-2-carboxylic acid], the Ki was < 0.5 µM at JAK2 (enzyme inhibition, Table 5); 0.5 to 5 µM at ROCK I (setting [2]); < 0.5 µM on JAK3 (enzyme inhibition, Table 5).
Regarding `O=C(c1cc(-c2c(F)cnc3[nH]ccc23)c[nH]1)N(CCC(F)(F)F)Cc1ccccc1` [compound 389], the Ki was < 0.5 µM at JAK2 (setting [1]), 0.5 to 5 µM at ROCK I (setting [1]) and < 0.5 µM at JAK3 (setting [1]).
On to `Cc1ccccc1-c1ccnc2[nH]ccc12` [compound 219], for which the values for the Ki at JAK2 (setting [1]), at ROCK I (setting [1]) and on JAK3 (setting [1]) were > 5 µM, 0.5 to 5 µM and 0.5 to 5 µM, respectively.
For `CN(C)CCCN(C)C(=O)c1cc(-c2ccnc3[nH]ccc23)c[nH]1` [compound 365], the Ki on JAK2 (setting [1]) is 0.5 to 5 µM; on ROCK I (setting [1]), < 0.5 µM; at JAK3 (setting [1]), 0.5 to 5 µM.
Take `COCc1cccc(-c2ccnc3[nH]ccc23)c1` [compound 62, 4-(3-Methoxymethyl-phenyl)-1H-pyrrolo[2,3-b]pyridine]: the Ki is < 0.5 µM on JAK2 (enzyme inhibition, Table 5); < 0.5 µM on ROCK I (setting [2]); < 0.5 µM on JAK3 (enzyme inhibition, Table 5).
With `c1cc(-c2ccnc3[nH]ccc23)nc(N2CCc3ccccc3C2)c1` [compound 38, 2-(6-(1H-Pyrrolo[2,3-b]pyridin-4-yl)pyridin-2-yl)-1,2,3,4-tetrahydroisoquinoline], the Ki at JAK2 (enzyme inhibition, Table 5) lay within 0.5 to 5 µM; at ROCK I (setting [2]), 0.5 to 5 µM; at JAK3 (enzyme inhibition, Table 5) it was 0.5 to 5 µM.
For `C#CCN(C)C(=O)c1cc(-c2ccnc3[nH]ccc23)c[nH]1` [compound 307], the Ki at JAK2 (setting [1]), at ROCK I (setting [1]) and on JAK3 (setting [1]) was < 0.5 µM throughout.
As to `CS(=O)(=O)N1CC[C@@H](Nc2c(Cl)cnc3[nH]ccc23)C1` [compound 184], the Ki is < 0.5 µM on JAK2 (setting [1]), 0.5 to 5 µM at ROCK I (setting [1]) and < 0.5 µM on JAK3 (setting [1]).
On to `CC(C)c1cccc(-c2ccnc3[nH]ccc23)n1` [compound 97, 4-(6-isopropylpyridin-2-yl)-1H-pyrrolo[2,3-b]pyridine], for which the Ki was < 0.5 µM at JAK2 (enzyme inhibition, Table 5); < 0.5 µM on ROCK I (setting [2]); < 0.5 µM at JAK3 (enzyme inhibition, Table 5).
